Tests used:
COLO 205 = assay: Anticancer activity against human COLO205 cells by MTT assay; format: functional, cell-based
K562 = assay: Anticancer activity against human K562 cells by MTT assay; format: functional, cell-based
[1] = Anticancer activity against mouse P388D1 cells by MTT assay; format: functional, cell-based
SK-OV-3 = assay: Anticancer activity against human SKOV3 cells by MTT assay; format: functional, cell-based
[2] = Anticancer activity against human KATO III cells by MTT assay; format: functional, cell-based, KATO III cell
A549 = assay: Anticancer activity against human A549 cells by MTT assay; format: functional, cell-based
NCI-H23 [3] = assay: Anticancer activity against human NCI-H23 cells xenografted in BALB/c nu/nu mouse assessed as tumor growth inhibition at 65 mg/kg, po every alternative day for 12 days measured on day 19; format: functional; conditions: read-out: TGI
SW-620 [4] = assay: Anticancer activity against human SW620 cells xenografted in BALB/c nu/nu mouse assessed as tumor growth inhibition at 65 mg/kg, po every alternative day for 12 days measured on day 19; format: functional; conditions: read-out: TGI
Mus musculus [5] = assay: Toxicity in human NCI-H23 cells xenografted BALB/c nu/nu mouse assessed as change in body weight at 65 mg/kg, po administered every alternative day for 12 days measured on day 20 (reference value: 1.2 g); format: organism-based; parameters: dose 65 mg/kg, route oral; conditions: in vivo, 288 h
Mus musculus [6] = assay: Toxicity in human SW620 cells xenografted BALB/c nu/nu mouse assessed as change in body weight at 65 mg/kg, po administered every alternative day for 12 days measured on day 20 (reference value: 1.1 g); format: organism-based, SW-620; parameters: dose 65 mg/kg, route oral; conditions: in vivo, 288 h
SW-620 [7] = assay: Anticancer activity against human SW620 cells xenografted in BALB/c nu/nu mouse assessed as tumor growth inhibition at 1 mg/kg, ip qd for 11 days followed by 2 mg/kg, ip qd on day 12 to day 14 and 3 mg/kg, ip qd on day 15 to day 18 measured on day 19; format: functional
Mus musculus [8] = assay: Toxicity in human NCI-H23 cells xenografted BALB/c nu/nu mouse assessed as change in body weight at 1 mg/kg, ip qd for 11 days followed by 2 mg/kg, ip qd on day 12 to day 14 and 3 mg/kg, ip qd on day 15 to day 18 measured on day 20 (reference value: 1.2 g); format: organism-based; conditions: in vivo, 264 h
NCI-H23 [9] = assay: Anticancer activity against human NCI-H23 cells xenografted in BALB/c nu/nu mouse assessed as tumor growth inhibition at 1 mg/kg, ip qd for 11 days followed by 2 mg/kg, ip qd on day 12 to day 14 and 3 mg/kg, ip qd on day 15 to day 18 measured on day 19; format: functional
Mus musculus [10] = assay: Toxicity in human SW620 cells xenografted BALB/c nu/nu mouse assessed as change in body weight at 1 mg/kg, ip qd for 11 days followed by 2 mg/kg, ip qd on day 12 to day 14 and 3 mg/kg, ip qd on day 15 to day 18 measured on day 20 (reference value: 1.1 g); format: organism-based, SW-620; conditions: in vivo, 264 h

| SMILES | IC50 (COLO 205) [µM] | IC50 (K562) [µM] | IC50 [1] [µM] | IC50 (SK-OV-3) [µM] | IC50 [2] [µM] | IC50 (A549) [µM] | inhibition in vivo at 65 mg/kg (NCI-H23 [3]) [%] | inhibition in vivo at 65 mg/kg (SW-620 [4]) [%] | Activity (Mus musculus [5]) [g] | Activity (Mus musculus [6]) [g] | TGI (SW-620 [7]) [%] | Activity (Mus musculus [8]) [g] | TGI (NCI-H23 [9]) [%] | Activity (Mus musculus [10]) [g] |
| --- | --- | --- | --- | --- | --- | --- | --- | --- | --- | --- | --- | --- | --- | --- |
| O=C1NC(c2ccccc2)CN1S(=O)(=O)c1ccc2c(c1)CCCN2 (stereo not given) | 7.23 | > 20 | 4.25 | 10.4 | > 20 | > 20 | – | – | – | – | – | – | – | – |
| COC(=O)N1CCCc2cc(S(=O)(=O)N3CC(c4ccccc4)NC3=O)ccc21 (stereo not given) | 4.01 | > 20 | 2.26 | 3.48 | 16.5 | 1.15 | – | – | – | – | – | – | – | – |
| CCOC(=O)N1CCCc2cc(S(=O)(=O)N3CC(c4ccccc4)NC3=O)ccc21 (stereo not given) | 2.78 | > 20 | 1.43 | 2.88 | 11.2 | 0.344 | – | – | – | – | – | – | – | – |
| CCCOC(=O)N1CCCc2cc(S(=O)(=O)N3CC(c4ccccc4)NC3=O)ccc21 (stereo not given) | 1.42 | > 20 | 2.02 | 3.92 | 3.3 | 1.03 | – | – | – | – | – | – | – | – |
| CC(C)COC(=O)N1CCCc2cc(S(=O)(=O)N3CC(c4ccccc4)NC3=O)ccc21 (stereo not given) | 3.72 | 2.38 | 1.25 | 5.65 | 2.75 | > 20 | – | – | – | – | – | – | – | – |
| CCCCOC(=O)N1CCCc2cc(S(=O)(=O)N3CC(c4ccccc4)NC3=O)ccc21 (stereo not given) | 4.11 | 3.68 | 2.08 | 9.57 | 4.01 | > 20 | – | – | – | – | – | – | – | – |
| C=CCOC(=O)N1CCCc2cc(S(=O)(=O)N3CC(c4ccccc4)NC3=O)ccc21 (stereo not given) | 6.58 | 0.473 | 0.945 | 2.75 | 5.05 | 4.31 | – | – | – | – | – | – | – | – |
| O=C(OCCCl)N1CCCc2cc(S(=O)(=O)N3CC(c4ccccc4)NC3=O)ccc21 (stereo not given) | 2.82 | 10.6 | 1.21 | 9.8 | 8.68 | > 20 | – | – | – | – | – | – | – | – |
| O=C(CCl)N1CCCc2cc(S(=O)(=O)N3CC(c4ccccc4)NC3=O)ccc21 (stereo not given) | 11.2 | 1.09 | – | – | 3.46 | – | – | – | – | – | – | – | – | – |
| O=C(c1ccccc1)N1CCCc2cc(S(=O)(=O)N3CC(c4ccccc4)NC3=O)ccc21 (stereo not given) | 19.3 | 1.22 | 5.34 | 8.56 | 14.3 | 8.14 | – | – | – | – | – | – | – | – |
| O=C1NC(c2ccccc2)CN1S(=O)(=O)c1ccc2c(c1)CCCN2C(=O)C(F)(F)F (stereo not given) | 10.7 | > 20 | 4.72 | 19.6 | 13.1 | > 20 | – | – | – | – | – | – | – | – |
| NC(=O)N1CCCc2cc(S(=O)(=O)N3CC(c4ccccc4)NC3=O)ccc21 (stereo not given) | > 20 | 3.66 | 12.3 | > 20 | 3.59 | 2.54 | – | – | – | – | – | – | – | – |
| O=C(CCl)NC(=O)N1CCCc2cc(S(=O)(=O)N3CC(c4ccccc4)NC3=O)ccc21 (stereo not given) | 9.9 | 0.515 | 3.87 | 6.14 | 2.54 | 0.449 | 58.5 | 67 | -0.6 | 1 | – | – | – | – |
| O=C(NC1CCCCC1)N1CCCc2cc(S(=O)(=O)N3CC(c4ccccc4)NC3=O)ccc21 (stereo not given) | 3.89 | 0.813 | 8.16 | 1.84 | 8.92 | 0.231 | 65.2 | 72.6 | 1.6 | 2 | – | – | – | – |
| CC1(c2ccccc2)CN(S(=O)(=O)c2ccc3c(c2)CCCN3C(=O)C(F)(F)F)C(=O)N1 (stereo not given) | > 20 | > 20 | > 20 | > 20 | > 20 | > 20 | – | – | – | – | – | – | – | – |
| CSc1ccc(NC(=O)N2CCCc3cc(S(=O)(=O)N4CC(C)(c5ccccc5)NC4=O)ccc32)cc1 (stereo not given) | > 20 | > 20 | > 20 | > 20 | – | > 20 | – | – | – | – | – | – | – | – |
| COc1ccc(NC(=O)N2CCCc3cc(S(=O)(=O)N4CC(C)(c5ccccc5)NC4=O)ccc32)cc1 (stereo not given) | > 20 | 12.4 | 15.9 | 9.47 | – | 5.3 | – | – | – | – | – | – | – | – |
| COc1cccc2c1C(=O)c1c(O)c3c(c(O)c1C2=O)C[C@@](O)(C(=O)CO)C[C@@H]3O[C@H]1C[C@H](N)[C@H](O)[C@H](C)O1 [DOXORUBICIN] | 0.4 | 0.198 | 0.338 | 2.95 | 4.38 | – | – | – | – | – | 45 | -1.6 | 39.6 | -2.3 |
| O=C(Nc1ccc(Cl)cc1)NS(=O)(=O)c1ccc2c(c1)CCC2 [SULOFENUR] | 23.1 | 19.2 | > 100 | 78.2 | 31.4 | > 20 | – | – | – | – | – | – | – | – |
